Laboratory results as given in patent US6677377B2, “Structure based discovery of inhibitors of matriptase for the treatment of cancer and other conditions” (Georgetown University School of Medicine, priority 2000, dated 2004).
pKi: −log10 of the molar value. “Also recorded” adds a separate entry of the source. Where two headings read alike, the source gives them in different places.

Tests used:
matriptase [1] = target: T1, matriptase (Homo sapiens, UniProt Q9Y5Y6); experiment: Matriptase enzyme activity and kinetic parameters with fluorescent peptide substrates; format: biochemical
T1 construct: Gels containing the 70-kDa active matriptase was sliced out, and eluted from gel; from tissue; host or cells: human milk
T1 sequence (Q9Y5Y6 615-855 limits assumed): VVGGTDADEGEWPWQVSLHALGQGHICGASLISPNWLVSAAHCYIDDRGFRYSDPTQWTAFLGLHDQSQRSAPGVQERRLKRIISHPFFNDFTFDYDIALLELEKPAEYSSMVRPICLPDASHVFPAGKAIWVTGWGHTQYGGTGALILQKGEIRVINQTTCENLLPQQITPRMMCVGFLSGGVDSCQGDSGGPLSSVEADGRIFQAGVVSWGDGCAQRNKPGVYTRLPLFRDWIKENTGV
T1 sequence (Q9Y5Y6 190-614 partner limits assumed): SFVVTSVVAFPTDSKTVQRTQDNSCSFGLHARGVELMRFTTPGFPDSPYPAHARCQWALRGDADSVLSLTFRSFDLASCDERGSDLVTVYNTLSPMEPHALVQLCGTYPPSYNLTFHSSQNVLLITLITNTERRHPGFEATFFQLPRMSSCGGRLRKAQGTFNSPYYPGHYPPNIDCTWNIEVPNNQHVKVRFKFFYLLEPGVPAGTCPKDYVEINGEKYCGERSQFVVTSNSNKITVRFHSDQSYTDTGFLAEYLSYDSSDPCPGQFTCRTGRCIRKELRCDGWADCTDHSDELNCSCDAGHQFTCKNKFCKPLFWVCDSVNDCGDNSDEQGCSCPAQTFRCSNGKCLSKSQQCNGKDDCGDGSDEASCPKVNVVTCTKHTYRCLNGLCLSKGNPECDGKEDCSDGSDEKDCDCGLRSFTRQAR
From the text: Purification of active Matriptase_Active matriptase, in the complex form with its endogenous inhibitor HAI-1, was purified from human milk. To separate matriptase from the bound HAI-1, the complex was dissociated by acid and resolved in 10% SDS polyacryamide gel electrophoresis. The proteins were stained by Zinc stain Kit (Bio-Rad, Hercules, Calif.), the 70-kDa active matriptase was sliced out, and eluted from gel using Electro-Eluter (Bio-Rad, Hercules, Calif.) under non-denatured condition (Tris-Glysine buffer pH 8.3).
Determination of matriptase activity_The enzyme activity of matriptase was measured at room temperature in a reaction buffer containing 100 mM Tris-HCl (pH 8.5) and 100_g/ml of BSA using fluorescent peptide as substrate. In brief, 10_l of enzyme solution and 10_l of peptide substrate were added to a cuvette containing 180_l of the reaction buffer. The mixture was mixed well, placed back to a fluorescent spectrophotometer (HITACH F4500), and the release of fluorescence resulting from hydrolysis of the peptide substrate was recorded with excitation at 360 nm and emission at 480 nm.
Determination of kinetic parameter_Substrate concentration versus initial reaction velocity were analyzed by the Michaelis-Menten equation and plotted using SigmaPlot software. Double reciprocal (Lineweaver-Burk) plots thus derived were used to determine Vmax and Km values.
Table 1. Kinetic Parameters of Matriptase for Various Peptide Substrates. […], the release of fluorescence resulting from hydrolysis of the peptide was recorded in a fluorescent spectrophotometer at room temperature with excitation at 360 nm and emission at 480 nm. Km and Vmax were determined by double reciprocal plot derived from Michaelis-Menten equation: […]

matriptase [2] = target: T1, matriptase; experiment: Determination of inhibitory activity, Ki by Dixon plotting, matriptase; format: biochemical
From the text: Purification of Active Form Matriptase. Activated matriptase, in a complex with its endogenous inhibitor HAI-1, was purified from human milk by immunoaffinity chromatography, and maintained in its uncomplexed status in glycine buffer pH 2.4, as described previously^11. Matritpase and HAI-1 were further separated by 10% SDS polyacryamide gel electrophoresis. The proteins were stained by Zinc stain Kit (Bio-Rad, Hercules, Calif.). Gels containing the 70-kDa active matriptase was sliced out, and eluted from gel using Electro-Eluter (Bio-Rad, Hercules, Calif.) under non-denatured conditions (Tris-Glysine buffer pH 8.3). Purified, active matriptase was then stored at −80° C. in acid solution.
(§1) Determination of Inhibitory Activity. Inhibitory activity of compounds against each protease was measured at room temperature using fluorescent substrate peptides in 100 mM Tris-HCl (pH 8.5), containing 100 μg/ml of bovine serum albumin. To a cuvette containing 170 μl buffer was added 10 μl of enzyme solution and 10 μl of inhibitors. After pre-incubation, 10 μl of substrate was added, and the solution was mixed well by shaking the cuvette. The residual enzyme activity was then determined by following the change of fluorescence released by hydrolysis of the fluorescent substrates in a fluorescent spectrophotometer (HITACHI F4500), with excitation at 360 nm and emission at 480 nm. Peptide N-t-Boc-Gln-Ala-Arg-AMC was used as a substrate for matriptase and trypsin, peptide N-t-Boc-Leu-Gly-Arg-AMC was used as a substrate for uPA, and peptide N-t-Boc-Leu-Arg-Arg-AMC was used as a substrate for thrombin.
(§2) Kinetic Screening of Compound Inhibitors. The inhibitory activity of each compound was first investigated by using a fixed (75 μM) concentration both of inhibitor and matriptase. […] We recorded the rate of hydrolysis in duplicate in the presence of 6-7 different concentrations of each inhibitor. A straight line of the concentration of inhibitor versus the reciprocal values of the rate of hydrolysis was plotted with SigmaPlot software. Two lines were obtained from two unsaturated substrate concentrations; the X value of the intersection of these lines gives the value of −Ki.

[3] = target: T2, urokinase-type plasminogen activator (uPA) (Homo sapiens, UniProt P00749); experiment: Determination of inhibitory activity, Ki by Dixon plotting, uPA; format: biochemical; details: for selectivity between matriptase and uPA (less potent for uPA than for matriptase): ratio of Ki values; for pKi: substrate N-t-Boc-Leu-Gly-Arg-AMC, pH 8.5, room temperature
T2 construct: from tissue; host or cells: human urine
From the text: (§3) Materials. Active matriptase was purified from human milk as will be described later. Active urokinase-type plasminogen activator (uPA) was purified by aminobenzamidine-Sepharose 6B (Amersham Pharmacia, Piscataway, N.J.) from a partially purified uPA from human urine. Bovin β-trypsin, bovine thrombin, and fluorescent peptide substrates N-tert-Butoxy-Carbonyl (N-t-Boc)-Gln-Ala-Arg-7-Amido-4-Methylcoumarin (AMC), N-t-Boc-Leu-Gly-Arg-AMC, and N-t-Boc-Leu-Arg-Arg-AMC were purchased from Sigma (Sigma Chemical Company, St. Louis). Small molecule inhibitors were obtained from the Drug Synthesis & Chemistry Branch, Developmental Therapeutics Program, Division of Cancer Treatment and Diagnosis, National Cancer Institute. Other chemicals are all reagent grade.
as §1, §2

bovine thrombin = target: T3, bovine thrombin (Bos taurus, UniProt P00735); experiment: Determination of inhibitory activity, Ki by Dixon plotting, thrombin; format: biochemical; details: for pKi: substrate N-t-Boc-Leu-Arg-Arg-AMC, pH 8.5, room temperature
T3 construct: bovine thrombin; purchased Sigma (Sigma Chemical Company, St. Louis)
From the text: as §3, §1, §2

[4] = system: PC-3 prostate cancer tumors; details: nude mice; cited from earlier work
[5] = peptide-AMC substrate hydrolysis by matriptase, room temperature
[6] = read-out: Ki value against matriptase (bound stated in text)
[7] = substrate N-t-Boc-Gln-Ala-Arg-AMC, pH 8.5, room temperature, read-out: Ki Matriptase

Which Km (matriptase [1]; [5]) does the source give for hexamidine [Compound 1] here?
Its Km is 4.89 µM.

What about the Vmax (matriptase [1]; [5]) of the same compound?
Its Vmax is 654 nM Amc/min.

What does the source list for `N=C(N)c1ccc(Oc2ccc(Oc3ccc(C(=N)N)cc3)cc2)cc1` [Compound 7]?
selectivity matriptase versus thrombin/uPA (matriptase [2]): most selective inhibitor for matriptase; also recorded: matriptase selective; also recorded: most selective compound; pKi (matriptase [2]; [6]): > 6.00; pKi (matriptase [2]; [7]): 6.68; selectivity between matriptase and uPA (less potent for uPA than for matriptase) [3]: 9 fold; pKi [3]: 5.71; selectivity between matriptase and thrombin (bovine thrombin; ratio of Ki values): 13 fold; pKi (bovine thrombin): 5.57

For `N=C(N)c1ccc(OCCCCCCOc2ccc(C(=N)N)cc2)cc1` [Compound 1, hexamidine, reference compound], which “selectivity matriptase versus thrombin/uPA” value (matriptase [2]) is on record?
The value was “thrombin selective”.

What about the pKi (matriptase [2]; [6]) of the same compound?
Its pKi is > 6.00.

What about the pKi (matriptase [2]; [7]) of the same compound?
Its pKi is 6.03.

What about the “selectivity between matriptase and uPA (less potent for uPA than for matriptase)” value [3] of the same compound?
The value was 16 fold.

And the pKi [3]?
Its pKi is 4.84.

And the pKi (bovine thrombin)?
Its pKi is 6.65.

What does the source list for `N=C(N)c1ccc(/N=N/c2c(O)ccc3cc4c(/N=N/c5ccc(C(=N)N)cc5)c(O)ccc4cc23)cc1` [Compound 4]?
pKi (matriptase [2]; [7]): 5.35; pKi (bovine thrombin): 4.55

With `CC(=O)N[C@@H](CC(C)C)C(=O)N[C@@H](CC(C)C)C(=O)N[C@H](C=O)CCCNC(=N)N` [leupeptin] as the compound, how does the “inhibition of matriptase enzyme activity” value (matriptase [1]) read?
Its value is “can also inhibit matriptase enzyme activity”.

For `N=C(N)c1ccc(OCCCCCCOc2ccc(C(=N)N)cc2I)cc1` [Compound 2], which “selectivity matriptase versus thrombin/uPA” value (matriptase [2]) is on record?
Its value is “more selective for matriptase versus thrombin”.

And the “improved potency for matriptase” value (matriptase [2]; compared with compound 1)?
Its value is “approximately 5 fold”.

And the pKi (matriptase [2]; [6])?
Its pKi is > 6.00.

And the pKi (matriptase [2]; [7])?
The pKi was 6.72.

And the pKi [3]?
Its pKi is 5.70.

And the “decreased potency for thrombin” value (bovine thrombin; compared with compound 1)?
Its value is “approximately 4 fold”.

What about the pKi (bovine thrombin) of the same compound?
The pKi was 6.10.

For `N=C(N)c1ccc(OCCCOc2ccc(C(=N)N)cc2Br)c(Br)c1` [Compound 5], which “more potent against matriptase” value (matriptase [2]; compared with 1 and 3) is on record?
The value was “approximately 2 fold”.

And the pKi (matriptase [2]; [6])?
The pKi was > 6.00.

What about the pKi (matriptase [2]; [7]) of the same compound?
The pKi was 6.27.

What about the pKi [3] of the same compound?
Its pKi is 5.80.

What about the pKi (bovine thrombin) of the same compound?
The pKi was 6.02.

Which “growth of PC-3 prostate cancer tumors” value [4] does the source give for ecotin here?
Its value is “retards the growth”.

With `N=C(N)c1ccc(OCCCCCOc2ccc(C(=N)N)cc2)cc1` [Compound 3] as the compound, how does the pKi (matriptase [2]; [7]) read?
Its pKi is 5.94.
